Columns and labels:
[1] = target: lysosomal α-galactosidase A; design: method as in PMID 15771446; conditions: Figure 1; cited from earlier work
Jack bean α-mannosidase = target: Jack bean α-mannosidase; design: method as in PMID 15771446; conditions: Figure 1; cited from earlier work
ER α-glucosidase II = target: T1, ER α-glucosidase II (Rattus norvegicus, UniProt A0A8I6GFL3); test: ER α-glucosidase II inhibition assay, enzyme prepared from rat liver, 4-nitrophenyl-α-D-glucopyranoside substrate; type: biochemical; conditions: for IC50: rat liver enzyme, pH 6.8, 37 °C 30 min, read-out: IC50 ER α-Glcase II
T1 construct: ER α-glucosidase II was prepared from the rat liver; from tissue; host or cells: rat liver
Procedure: (§1) The inhibitory activity toward lysosomal acid α-glucosidase (GAA) was measured with Myozyme (Genzyme; Boston, MA, USA) as the enzyme source, and 4-methylumbelliferyl-α-D-glucopyranoside (Sigma-Aldrich Co.; St. Louis, Mo, USA) as substrate. The reaction mixture consisted 100 mM McIlvaine buffer (pH 6.8), 0.25% sodium taurocholate and 0.1% Triton X-100 (Nacalai Tesque Inc.; Kyoto, Japan), and the appropriate amount of enzyme. The reaction mixture was pre-incubated at 0 °C for 45 min, and the reaction was started by the using 4 mM substrate solution, followed by incubation at 37 °C for 30 min. The reaction was stopped by the addition of 1.6 mL of the solution of 400 mM Glycine-NaOH solution (pH 10.6). The released 4-methylumbelliferone was measured (excitation 362 nm, emission 450 nm) with a F-4500 fluorescence spectrophotometer (Hitachi, Tokyo, Japan). ER α-glucosidase II was prepared from the rat liver according to the method of Hino et al.. For ER α-glucosidase II activities, 4-nitrophenyl-α-D-glucopyranoside (Sigma-Aldrich Co.; St. Louis, MO, USA) was used as substrate. The reaction mixture contained phosphate buffer (pH 6.8), 0.25% sodium taurocholate, and the appropriate amount of enzyme. The reaction mixture was pre-incubated at 0 °C for 30 min, and the reaction was started by the using 4 mM substrate solution, followed by incubation at 37 °C for 30 min. The reaction was stopped by adding 0.4 mL of 400 mM Na2CO3. The released p-nitrophenol was measured spectrometrically at 400 nm.

[2] = target: T2, lysosomal acid α-glucosidase (GAA) (Homo sapiens, UniProt P10253); test: Lysosomal acid α-glucosidase (GAA) inhibition assay, Myozyme as enzyme source, 4-methylumbelliferyl-α-D-glucopyranoside substrate; type: biochemical; conditions: for IC50: Myozyme, pH 6.8, 37 °C 30 min; for Selectivity Index ER α-Glcase II/GAA: ratio of IC50 ER α-glucosidase II / IC50 GAA
T2 construct: purchased Genzyme
Procedure: as §1

[3] = target: T2, lysosomal acid α-glucosidase (GAA); test: In vitro thermostability of GAA at 47 °C, remaining enzyme activity; type: biochemical; conditions: 10 µM compound, pH 6.8, incubation 60 min
Procedure: GAA was incubated in 100 mM McIlvaine buffer (pH 6.8) containing 0.25% sodium taurocholate and 0.1% Triton X-100 for 0, 20, 40, and 60 min, and the remaining enzyme activity was determined with 4-methylumbelliferl-α-D-glucopyranoside as substrate. The enzyme activity was 83% lost within 60 min under incubation without test samples, while the incubation with α-1-C-heptyl-LAB effectively stabilized GAA. The enzyme activity remained over 94% even under the incubation for 60 min in the presence of 10 µM α-1-C-heptyl-LAB (Figure 8). […] In contrast, 10 µM α-1-C-ethyl-LAB could not sufficiently protect the enzyme activity (50% activity remained at 60 min).
GAA was incubated at 47 °C in 100 mM sodium citrate buffer (pH 6.8) containing 1 mg/mL of bovine serum albumin (BSA) at various incubation times with or without iminosugars. Each value represents the mean ± SEM (n = 3).
The enzyme GAA was incubated at 47 °C in 100 mM McIlvaine buffer (pH 6.8) containing 0.25% sodium taurocholate and 0.1% Triton X-100 for 0, 20, 40, and 60 min. After incubation, the remaining GAA activity was assayed immediately using 4 mM 4-methylumbelliferyl-α-D-glucopyranoside as substrate.

T1 sequence (A0A8I6GFL3 33-944): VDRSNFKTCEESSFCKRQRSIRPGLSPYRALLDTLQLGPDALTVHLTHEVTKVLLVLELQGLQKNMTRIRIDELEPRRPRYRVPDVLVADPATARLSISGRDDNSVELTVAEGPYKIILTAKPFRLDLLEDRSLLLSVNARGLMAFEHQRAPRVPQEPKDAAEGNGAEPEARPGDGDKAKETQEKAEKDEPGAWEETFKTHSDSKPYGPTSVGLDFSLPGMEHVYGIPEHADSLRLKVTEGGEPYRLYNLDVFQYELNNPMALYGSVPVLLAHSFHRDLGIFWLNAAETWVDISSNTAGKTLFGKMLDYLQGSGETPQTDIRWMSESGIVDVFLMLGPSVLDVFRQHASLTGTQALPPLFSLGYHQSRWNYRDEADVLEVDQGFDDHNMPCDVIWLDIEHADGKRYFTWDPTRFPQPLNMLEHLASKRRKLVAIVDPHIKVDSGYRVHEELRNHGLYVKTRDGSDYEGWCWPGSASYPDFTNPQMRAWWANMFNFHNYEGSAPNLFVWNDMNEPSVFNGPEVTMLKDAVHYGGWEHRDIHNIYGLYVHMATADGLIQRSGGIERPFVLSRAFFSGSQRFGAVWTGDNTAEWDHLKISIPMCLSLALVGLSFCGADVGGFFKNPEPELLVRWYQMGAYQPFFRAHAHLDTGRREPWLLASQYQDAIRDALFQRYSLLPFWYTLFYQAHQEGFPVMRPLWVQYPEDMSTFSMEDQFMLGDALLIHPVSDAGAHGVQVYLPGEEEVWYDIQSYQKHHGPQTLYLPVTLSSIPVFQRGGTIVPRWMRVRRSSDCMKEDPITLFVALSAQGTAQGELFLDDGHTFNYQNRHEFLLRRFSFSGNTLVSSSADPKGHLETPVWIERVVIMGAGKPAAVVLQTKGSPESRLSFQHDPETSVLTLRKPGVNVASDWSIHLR

SMILES	IC50 (ER α-glucosidase II)	IC50 [2]	Selectivity Index ER α-Glcase II/GAA [2]	also measured
OC[C@H]1NC[C@H](O)[C@@H](O)[C@H]1O [DGJ, 1,5-dideoxy-1,5-imino-D-galactitol]	–	–	–	IC50 [1]: 0.07 µM
OC[C@H]1NC[C@@H](O)[C@@H](O)[C@@H]1O [DMJ, 1,5-dideoxy-1,5-imino-D-mannitol]	–	–	–	IC50 (Jack bean α-mannosidase): 774 µM
OC[C@H]1NC[C@H](O)[C@@H](O)[C@@H]1O [DNJ, 1,5-Dideoxy-1,5-imino-D-glucitol, reference compound]	8 ± 0.55 µM	–	–	–
OC[C@@H]1NC[C@H](O)[C@H]1O [LAB, 1,4-Dideoxy-1,4-imino-L-arabinitol]	2.8 ± 0.22 µM	–	–	Inhibition potency of GAA, times weaker than DNJ ([2]; relative to DNJ): 3.5 times; GAA enzyme activity remained [3]: 89%
CCCCCCC[C@@H]1N[C@@H](CO)[C@H](O)[C@H]1O [α-1-C-Heptyl-LAB, α-1-C-heptyl-1,4-dideoxy-1,4-imino-L-arabinitol]	74 ± 3.7 µM	0.44 ± 0.044 µM	168.2	Selectivity index, fold better relative to the parent LAB ([2]; relative to LAB): 31 fold; GAA enzyme activity remained [3]: over 94%
CCCCCC[C@@H]1N[C@@H](CO)[C@H](O)[C@H]1O [α-1-C-Hexyl-LAB]	100 ± 6.2 µM	0.71 ± 0.029 µM	140.8	–
C[C@@H]1N[C@@H](CO)[C@H](O)[C@H]1O [α-1-C-Methyl-LAB]	26 ± 2 µM	2 ± 0.12 µM	13.0	–

The next lines start with results.

IC50 (ER α-glucosidase II)	IC50 [2]	Selectivity Index ER α-Glcase II/GAA [2]	SMILES	also measured
228 ± 13 µM	1.6 ± 0.04 µM	142.5	CCCC[C@@H]1N[C@@H](CO)[C@H](O)[C@H]1O [α-1-C-Butyl-LAB]	–
541 ± 26 µM	11 ± 1.1 µM	49.2	CC[C@@H]1N[C@@H](CO)[C@H](O)[C@H]1O [α-1-C-Ethyl-LAB]	Inhibition of ER α-glucosidase II, fold weaker than LAB (ER α-glucosidase II; relative to LAB): 193 fold; Inhibition of GAA, fold lower than LAB ([2]; relative to LAB): 21 fold; GAA enzyme activity remained [3]: 50%
180 ± 19 µM	1.1 ± 0.088 µM	163.6	CCCCC[C@@H]1N[C@@H](CO)[C@H](O)[C@H]1O [α-1-C-Pentyl-LAB]	–
413 ± 50 µM	7.4 ± 0.31 µM	55.8	CCC[C@@H]1N[C@@H](CO)[C@H](O)[C@H]1O [α-1-C-Propyl-LAB]	–
